Each block holds one compound with its values, some of them ahead of it.
Key:
α1A adrenergic receptor [1] = biological target: T1, α1A adrenergic receptor (Homo sapiens, UniProt P35348); test: FLIPR calcium mobilization functional assay, α1A adrenergic receptor
T1 sequence (P35348 1-466): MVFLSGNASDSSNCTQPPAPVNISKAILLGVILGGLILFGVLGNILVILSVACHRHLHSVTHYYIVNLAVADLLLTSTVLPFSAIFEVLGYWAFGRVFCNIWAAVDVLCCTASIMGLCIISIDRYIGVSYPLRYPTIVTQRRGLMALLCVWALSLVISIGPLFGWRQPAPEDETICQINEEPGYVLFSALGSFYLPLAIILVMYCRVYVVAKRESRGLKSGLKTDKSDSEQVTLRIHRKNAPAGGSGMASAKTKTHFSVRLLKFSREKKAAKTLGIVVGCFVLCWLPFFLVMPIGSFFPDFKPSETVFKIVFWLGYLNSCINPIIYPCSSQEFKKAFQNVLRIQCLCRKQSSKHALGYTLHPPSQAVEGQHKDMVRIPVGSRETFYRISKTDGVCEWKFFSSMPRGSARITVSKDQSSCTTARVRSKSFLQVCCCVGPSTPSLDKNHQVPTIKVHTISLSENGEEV

α1A = α1A (Homo sapiens, UniProt P35348); test: PDSP screening; settings: no affinity
β3 = β3 (Homo sapiens, UniProt P13945); test: PDSP screening; settings: no affinity
β3, sequence (P13945 whole entry): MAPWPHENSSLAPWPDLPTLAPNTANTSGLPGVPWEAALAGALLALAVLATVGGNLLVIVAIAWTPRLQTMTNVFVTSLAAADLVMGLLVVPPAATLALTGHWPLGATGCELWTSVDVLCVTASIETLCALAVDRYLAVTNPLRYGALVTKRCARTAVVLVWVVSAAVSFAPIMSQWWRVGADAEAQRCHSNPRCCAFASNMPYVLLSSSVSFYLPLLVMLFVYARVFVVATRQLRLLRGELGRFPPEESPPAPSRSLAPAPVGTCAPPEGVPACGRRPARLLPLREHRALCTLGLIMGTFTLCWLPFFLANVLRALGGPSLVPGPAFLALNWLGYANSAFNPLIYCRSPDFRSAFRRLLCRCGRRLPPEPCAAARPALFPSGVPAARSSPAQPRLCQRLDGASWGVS

5-HT2C = 5-HT2C (Homo sapiens, UniProt P28335); test: PDSP screening
5-HT2C, sequence (P28335 33-458, species assumed): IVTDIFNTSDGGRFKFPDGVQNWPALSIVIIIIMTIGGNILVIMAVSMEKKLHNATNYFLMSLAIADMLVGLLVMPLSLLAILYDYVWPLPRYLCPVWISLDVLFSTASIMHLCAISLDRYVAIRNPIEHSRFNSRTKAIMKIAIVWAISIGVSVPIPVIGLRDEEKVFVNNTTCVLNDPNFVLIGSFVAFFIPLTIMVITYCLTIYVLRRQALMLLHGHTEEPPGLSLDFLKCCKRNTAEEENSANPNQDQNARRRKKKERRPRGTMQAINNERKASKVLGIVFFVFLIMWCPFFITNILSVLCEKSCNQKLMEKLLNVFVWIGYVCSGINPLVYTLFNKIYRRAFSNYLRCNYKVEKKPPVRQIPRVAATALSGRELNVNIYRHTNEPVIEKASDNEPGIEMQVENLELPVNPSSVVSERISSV

M1 = M1 (Homo sapiens, UniProt P11229); test: PDSP screening; settings: no affinity
M2 = M2 (Homo sapiens, UniProt P08172); test: PDSP screening; settings: no affinity
β2 = β2 (Homo sapiens, UniProt P07550); test: PDSP screening; settings: no affinity
D2 = D2 (Homo sapiens, UniProt P14416); test: PDSP screening; settings: no affinity
α1D = α1D (Homo sapiens, UniProt P25100); test: PDSP screening; settings: no affinity
H1 = H1 (Homo sapiens, UniProt P35367); test: PDSP screening; settings: no affinity
H1, sequence (P35367 whole entry): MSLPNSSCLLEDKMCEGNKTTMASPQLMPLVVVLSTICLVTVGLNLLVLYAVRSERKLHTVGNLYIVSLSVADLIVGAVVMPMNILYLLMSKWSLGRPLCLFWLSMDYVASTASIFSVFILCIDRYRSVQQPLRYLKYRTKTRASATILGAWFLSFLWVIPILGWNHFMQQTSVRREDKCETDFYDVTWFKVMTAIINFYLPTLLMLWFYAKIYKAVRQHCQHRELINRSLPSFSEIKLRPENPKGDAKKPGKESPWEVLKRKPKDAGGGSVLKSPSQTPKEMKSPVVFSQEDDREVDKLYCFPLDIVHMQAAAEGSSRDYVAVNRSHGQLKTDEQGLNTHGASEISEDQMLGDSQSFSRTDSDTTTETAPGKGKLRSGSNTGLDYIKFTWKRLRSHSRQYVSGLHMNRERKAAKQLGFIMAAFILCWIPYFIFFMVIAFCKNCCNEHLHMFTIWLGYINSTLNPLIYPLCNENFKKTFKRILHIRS

sigma-2 = sigma-2 (Rattus norvegicus, UniProt Q5U3Y7); test: PDSP screening
sigma-2, sequence (Q5U3Y7 whole entry): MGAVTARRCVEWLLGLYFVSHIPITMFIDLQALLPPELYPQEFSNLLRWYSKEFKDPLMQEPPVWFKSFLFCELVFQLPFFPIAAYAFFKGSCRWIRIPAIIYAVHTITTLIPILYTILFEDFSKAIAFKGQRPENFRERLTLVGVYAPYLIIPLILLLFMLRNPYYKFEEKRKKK

5-HT6 = 5-HT6 (Homo sapiens, UniProt P50406); test: PDSP screening
5-HT6, sequence (P50406 whole entry, species assumed): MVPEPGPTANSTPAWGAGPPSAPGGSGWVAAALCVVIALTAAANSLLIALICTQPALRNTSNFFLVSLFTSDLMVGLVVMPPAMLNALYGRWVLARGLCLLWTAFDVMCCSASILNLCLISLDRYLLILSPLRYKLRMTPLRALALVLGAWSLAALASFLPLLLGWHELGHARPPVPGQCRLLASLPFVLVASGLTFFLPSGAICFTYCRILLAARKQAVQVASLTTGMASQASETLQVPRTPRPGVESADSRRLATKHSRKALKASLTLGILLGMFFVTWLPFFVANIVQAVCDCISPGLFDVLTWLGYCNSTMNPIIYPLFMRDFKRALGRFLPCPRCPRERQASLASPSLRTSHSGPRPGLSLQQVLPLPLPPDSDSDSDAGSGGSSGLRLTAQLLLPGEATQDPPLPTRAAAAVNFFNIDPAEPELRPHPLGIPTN

GABAA = test: PDSP screening; settings: no affinity
DOR = DOR (Homo sapiens, UniProt P41143); test: PDSP screening; settings: no affinity
DOR, sequence (P41143 whole entry): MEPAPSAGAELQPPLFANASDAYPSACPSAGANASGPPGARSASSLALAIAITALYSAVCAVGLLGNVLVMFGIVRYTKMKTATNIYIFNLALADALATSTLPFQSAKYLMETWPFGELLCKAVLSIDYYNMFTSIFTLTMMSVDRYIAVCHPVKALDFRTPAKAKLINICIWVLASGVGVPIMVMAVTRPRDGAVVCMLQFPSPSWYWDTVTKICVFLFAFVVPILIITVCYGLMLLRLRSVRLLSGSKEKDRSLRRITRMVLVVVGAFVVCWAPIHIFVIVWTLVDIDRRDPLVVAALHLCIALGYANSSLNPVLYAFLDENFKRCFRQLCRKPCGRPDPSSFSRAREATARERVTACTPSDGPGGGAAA

H3 = H3 (Homo sapiens, UniProt Q9Y5N1); test: PDSP screening; settings: no affinity
H3, sequence (Q9Y5N1 whole entry): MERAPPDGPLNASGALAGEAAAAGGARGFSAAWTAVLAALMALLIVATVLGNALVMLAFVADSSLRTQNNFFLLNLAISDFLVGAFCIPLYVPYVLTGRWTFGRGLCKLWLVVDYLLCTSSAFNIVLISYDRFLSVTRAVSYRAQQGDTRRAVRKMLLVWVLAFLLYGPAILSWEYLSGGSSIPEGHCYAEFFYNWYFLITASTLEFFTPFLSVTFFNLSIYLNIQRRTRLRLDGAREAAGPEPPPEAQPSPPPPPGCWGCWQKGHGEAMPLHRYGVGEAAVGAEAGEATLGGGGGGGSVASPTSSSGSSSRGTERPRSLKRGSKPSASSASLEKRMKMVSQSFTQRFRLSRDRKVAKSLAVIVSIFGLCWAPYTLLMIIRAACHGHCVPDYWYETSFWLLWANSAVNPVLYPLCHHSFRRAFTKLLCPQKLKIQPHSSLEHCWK

SERT = SERT (Homo sapiens, UniProt P31645); test: PDSP screening; settings: no affinity
BZP rat brain site = test: PDSP screening; settings: no affinity
DAT = DAT (Homo sapiens, UniProt Q01959); test: PDSP screening
M4 = M4 (Homo sapiens, UniProt P08173); test: PDSP screening; settings: no affinity
M3 = M3 (Homo sapiens, UniProt P20309); test: PDSP screening; settings: no affinity
M3, sequence (P20309 whole entry): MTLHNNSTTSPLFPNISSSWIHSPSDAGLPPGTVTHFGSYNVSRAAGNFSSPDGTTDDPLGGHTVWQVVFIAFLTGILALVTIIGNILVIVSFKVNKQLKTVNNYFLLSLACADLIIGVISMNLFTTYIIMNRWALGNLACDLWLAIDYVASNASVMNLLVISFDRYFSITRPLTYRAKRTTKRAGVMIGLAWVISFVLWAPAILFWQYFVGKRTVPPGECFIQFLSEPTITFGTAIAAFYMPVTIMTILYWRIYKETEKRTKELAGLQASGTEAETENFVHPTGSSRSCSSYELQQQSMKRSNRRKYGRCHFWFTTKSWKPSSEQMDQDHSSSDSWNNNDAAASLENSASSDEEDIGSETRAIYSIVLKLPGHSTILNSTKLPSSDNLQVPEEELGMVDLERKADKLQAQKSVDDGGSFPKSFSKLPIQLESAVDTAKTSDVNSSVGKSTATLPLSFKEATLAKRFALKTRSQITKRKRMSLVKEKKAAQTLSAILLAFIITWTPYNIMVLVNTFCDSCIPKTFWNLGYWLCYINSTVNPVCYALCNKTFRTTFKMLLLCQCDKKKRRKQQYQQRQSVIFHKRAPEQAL

5-HT2A receptor [2] = biological target: T2, 5-HT2A receptor (Homo sapiens, UniProt P28223); test: FLIPR calcium mobilization functional assay, human 5-HT2A receptor; settings: for Selectivity α1A/5-HT2A: ratio of Ke α1A / Ke 5-HT2A
T2 sequence (P28223 whole entry): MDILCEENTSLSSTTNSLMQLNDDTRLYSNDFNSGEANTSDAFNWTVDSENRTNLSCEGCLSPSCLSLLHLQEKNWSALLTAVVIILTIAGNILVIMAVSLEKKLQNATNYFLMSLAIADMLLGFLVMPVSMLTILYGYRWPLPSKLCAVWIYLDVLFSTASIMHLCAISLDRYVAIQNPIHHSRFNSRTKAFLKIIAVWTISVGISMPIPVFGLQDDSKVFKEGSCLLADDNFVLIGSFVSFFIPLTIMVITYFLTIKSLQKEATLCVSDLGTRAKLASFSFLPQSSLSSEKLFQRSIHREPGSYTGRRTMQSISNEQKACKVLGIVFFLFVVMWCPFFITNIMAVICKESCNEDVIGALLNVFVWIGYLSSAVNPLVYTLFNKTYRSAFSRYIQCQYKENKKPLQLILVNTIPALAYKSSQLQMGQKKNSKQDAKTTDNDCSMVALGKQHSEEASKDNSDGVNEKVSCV

D5 = D5 (Homo sapiens, UniProt P21918); test: PDSP screening; settings: no affinity
β1 = β1 (Homo sapiens, UniProt P08588); test: PDSP screening; settings: no affinity
β1, sequence (P08588 whole entry): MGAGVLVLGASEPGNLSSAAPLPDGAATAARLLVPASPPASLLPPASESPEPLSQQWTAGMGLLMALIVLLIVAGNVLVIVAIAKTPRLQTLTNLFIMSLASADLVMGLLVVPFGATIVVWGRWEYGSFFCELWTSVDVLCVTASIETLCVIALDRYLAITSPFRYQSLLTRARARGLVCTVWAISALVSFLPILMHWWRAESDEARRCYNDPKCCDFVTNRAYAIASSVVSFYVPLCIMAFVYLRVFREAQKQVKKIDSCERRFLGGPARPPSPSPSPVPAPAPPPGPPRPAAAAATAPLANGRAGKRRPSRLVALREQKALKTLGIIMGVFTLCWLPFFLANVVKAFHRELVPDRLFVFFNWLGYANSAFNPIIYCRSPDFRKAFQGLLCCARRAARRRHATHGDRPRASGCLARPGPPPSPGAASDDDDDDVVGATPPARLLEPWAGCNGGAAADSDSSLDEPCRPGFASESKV

5-HT2A receptor [3] = biological target: T2, 5-HT2A receptor; test: PDSP screening
5-HT1A = 5-HT1A (Homo sapiens, UniProt P08908); test: PDSP screening; settings: no affinity
PBR = PBR (Rattus norvegicus, UniProt P16257); test: PDSP screening
NET = NET (Homo sapiens, UniProt P23975); test: PDSP screening; settings: no affinity
MOR = MOR (Homo sapiens, UniProt P35372); test: PDSP screening; settings: no affinity
H4 = H4 (Homo sapiens, UniProt Q9H3N8); test: PDSP screening; settings: no affinity
5-HT5A = 5-HT5A (Homo sapiens, UniProt P47898); test: PDSP screening; settings: no affinity
α2A = α2A (Homo sapiens, UniProt P08913); test: PDSP screening
α2A, sequence (P08913 whole entry): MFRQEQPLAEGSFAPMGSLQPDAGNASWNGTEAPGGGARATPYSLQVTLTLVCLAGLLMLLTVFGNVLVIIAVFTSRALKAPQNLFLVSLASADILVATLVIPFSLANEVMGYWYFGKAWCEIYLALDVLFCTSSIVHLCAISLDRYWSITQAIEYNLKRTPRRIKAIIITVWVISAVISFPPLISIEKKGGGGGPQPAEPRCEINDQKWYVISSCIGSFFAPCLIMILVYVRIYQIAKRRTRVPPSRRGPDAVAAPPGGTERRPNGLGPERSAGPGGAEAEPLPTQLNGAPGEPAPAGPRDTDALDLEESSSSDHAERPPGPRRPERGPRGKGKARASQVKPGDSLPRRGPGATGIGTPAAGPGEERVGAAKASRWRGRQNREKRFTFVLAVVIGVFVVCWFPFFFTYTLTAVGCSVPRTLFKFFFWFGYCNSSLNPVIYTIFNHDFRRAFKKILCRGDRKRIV

KOR = KOR (Homo sapiens, UniProt P41145); test: PDSP screening; settings: no affinity
α1B = α1B (Homo sapiens, UniProt P35368); test: PDSP screening; settings: no affinity
D4 = D4 (Homo sapiens, UniProt P21917); test: PDSP screening; settings: no affinity
α1A adrenergic receptor [4] = biological target: T1, α1A adrenergic receptor; settings: prior SAR studies; cited from earlier work

Compound: COc1cc2c3c(c1OC)-c1cc4c(cc1CC3N(C)CC2)OCO4 (stereo not drawn) [Compound 4, nantenine, reference compound]
- Kb (α1A adrenergic receptor [1]): 36 ± 7 nM

Compound: COc1cc2c3c(c1OCC=C(C)C)-c1cc4c(cc1CC3N(C)CC2)OCO4 (stereo not drawn) [Compound 8c]
- Kb (α1A adrenergic receptor [1]): > 10000 nM

Compound: COc1cc2c3c(c1OCc1ccc(Br)cc1)-c1cc4c(cc1CC3N(C)CC2)OCO4 (stereo not drawn) [Compound 8k]
- inhibition in a primary assay, α1A (α1A): less than 50%
- inhibition in a primary assay, β3 (β3): less than 50%
- Ki (5-HT2C): 300 to 900 nM
- inhibition in a primary assay, M1 (M1): less than 50%
- inhibition in a primary assay, M2 (M2): less than 50%
- inhibition in a primary assay, β2 (β2): less than 50%
- inhibition in a primary assay, D2 (D2): less than 50%
- inhibition in a primary assay, α1D (α1D): less than 50%
- inhibition in a primary assay, H1 (H1): less than 50%
- Ki (sigma-2): 300 to 900 nM
- Ki (5-HT6): 300 to 900 nM
- inhibition in a primary assay, GABAA (GABAA): less than 50%
- inhibition in a primary assay, DOR (DOR): less than 50%
- inhibition in a primary assay, H3 (H3): less than 50%
- inhibition in a primary assay, SERT (SERT): less than 50%
- inhibition in a primary assay, BZP rat brain site (BZP rat brain site): less than 50%
- Ki (DAT): 300 to 900 nM
- inhibition in a primary assay, M4 (M4): less than 50%
- inhibition in a primary assay, M3 (M3): less than 50%
- Kb (5-HT2A receptor [2]): 9.2 ± 2.6 nM
- Selectivity α1A/5-HT2A (5-HT2A receptor [2]): >1,086
- inhibition in a primary assay, D5 (D5): less than 50%
- inhibition in a primary assay, β1 (β1): less than 50%
- Ki (5-HT2A receptor [3]): 185 nM
- inhibition in a primary assay, 5-HT1A (5-HT1A): less than 50%
- Ki (PBR): > 900 nM
- inhibition in a primary assay, NET (NET): less than 50%
- inhibition in a primary assay, MOR (MOR): less than 50%
- inhibition in a primary assay, H4 (H4): less than 50%
- inhibition in a primary assay, 5-HT5A (5-HT5A): less than 50%
- Ki (α2A): 300 to 900 nM
- inhibition in a primary assay, KOR (KOR): less than 50%
- Kb (α1A adrenergic receptor [1]): > 10000 nM
- inhibition in a primary assay, α1B (α1B): less than 50%
- inhibition in a primary assay, D4 (D4): less than 50%

Compound: COc1cc2c3c(c1OCc1ccc(Cl)cc1)-c1cc4c(cc1CC3N(C)CC2)OCO4 (stereo not drawn) [Compound 8i]
- Kb (5-HT2A receptor [2]): 6050 nM
- Selectivity α1A/5-HT2A (5-HT2A receptor [2]): > 1.7
- Kb (α1A adrenergic receptor [1]): > 10000 nM

Compound: C=CCOc1c(OC)cc2c3c1-c1cc4c(cc1CC3N(C)CC2)OCO4 (stereo not drawn) [Compound 5]
- affinity for the α1A adrenergic receptor (α1A adrenergic receptor [4]): devoid of affinity
- Kb (α1A adrenergic receptor [1]): > 10000 nM

Compound: COc1cc2c3c(c1OCC#N)-c1cc4c(cc1CC3N(C)CC2)OCO4 (stereo not drawn) [Compound 8g]
- Kb (5-HT2A receptor [2]): > 10000 nM
- Selectivity α1A/5-HT2A (5-HT2A receptor [2]): < 0.07
- Kb (α1A adrenergic receptor [1]): 711 ± 64 nM

- Kb (5-HT2A receptor [2]): > 10000 nM
- Kb (α1A adrenergic receptor [1]): > 10000 nM
Compound: COc1cc2c3c(c1OC/C=C/c1ccccc1)-c1cc4c(cc1CC3N(C)CC2)OCO4 (stereo not drawn) [Compound 8e]

- Kb (5-HT2A receptor [2]): 1910 nM
- Kb (α1A adrenergic receptor [1]): 591 ± 81 nM
Compound: COc1cc2c3c(c1OCCOC(C)=O)-c1cc4c(cc1CC3N(C)CC2)OCO4 (stereo not drawn) [Compound 8h]

Compound: C/C=C/COc1c(OC)cc2c3c1-c1cc4c(cc1CC3N(C)CC2)OCO4 (stereo not drawn) [Compound 8a]
- Kb (α1A adrenergic receptor [1]): 1980 nM

Compound: C=C(C)COc1c(OC)cc2c3c1-c1cc4c(cc1CC3N(C)CC2)OCO4 (stereo not drawn) [Compound 8b]
- Kb (α1A adrenergic receptor [1]): > 10000 nM

Compound: COc1cc2c3c(c1OCc1ccc(C(F)(F)F)cc1)-c1cc4c(cc1CC3N(C)CC2)OCO4 (stereo not drawn) [Compound 8j]
- Kb (5-HT2A receptor [2]): 2460 nM
- Selectivity α1A/5-HT2A (5-HT2A receptor [2]): > 4.1
- Kb (α1A adrenergic receptor [1]): > 10000 nM

— publication PMC4628873 (Bioorganic & medicinal chemistry letters, 2015)
